The target of the assay is T1, EGFR del746-750 T790M (Homo sapiens, UniProt P00533, DEL746-750/T790M).
T1 construct: purchased Carna Biosciences 08-528
T1 sequence (P00533 with tags, fused parts or gaps DEL746-750/T790M limits assumed): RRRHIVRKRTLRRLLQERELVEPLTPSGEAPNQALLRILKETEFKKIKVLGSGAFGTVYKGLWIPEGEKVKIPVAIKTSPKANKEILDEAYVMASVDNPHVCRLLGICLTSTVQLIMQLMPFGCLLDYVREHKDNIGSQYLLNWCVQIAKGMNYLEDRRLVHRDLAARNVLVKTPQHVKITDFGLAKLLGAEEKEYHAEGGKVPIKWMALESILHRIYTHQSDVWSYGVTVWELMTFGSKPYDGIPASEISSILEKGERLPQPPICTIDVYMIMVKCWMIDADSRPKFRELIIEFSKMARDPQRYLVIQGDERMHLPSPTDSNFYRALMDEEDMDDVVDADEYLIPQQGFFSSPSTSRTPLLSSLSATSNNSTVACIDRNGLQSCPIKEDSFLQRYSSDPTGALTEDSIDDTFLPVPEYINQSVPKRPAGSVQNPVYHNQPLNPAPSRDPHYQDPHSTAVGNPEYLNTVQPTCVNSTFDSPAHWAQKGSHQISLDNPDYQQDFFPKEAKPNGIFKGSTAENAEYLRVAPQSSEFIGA
In words: EGFR del746-750 T790M biochemical assay (Caliper mobility shift). The conditions noted are these: 5 μM ATP, 30 min, room temperature; apparent Ki (Morrison) converted by Cheng-Prusoff, Km of ATP 2.1 μM; read-out: EGFR(T790M/d746-750) Ki.
For `COC1CCN(c2nccc(Nc3cc4c(cn3)nc(C)n4-c3ccccc3)n2)CC1` [Example 494, N-(2-(4-Methoxypiperidin-yl)pyrimidin-4-yl)-2-methyl-1-phenyl-1H-imidazo[4,5-c]pyridin-6-amine], the Ki worked out at 30.4 nM.

For `CC(C)n1c([C@@H](C)O)nc2cnc(Nc3ccnc(N4CC[C@@H](O)[C@@H](F)C4)n3)cc21` [Example 658], the Ki is 44.3 nM. As to `CC(C)n1c(CO)nc2cnc(Nc3ccnc(N4CC[C@H](O)[C@](C)(F)C4)n3)cc21` (racemic) [Example 645, (3RS,4SR)-3-Fluoro-1-(4-((2-(hydroxymethyl)-1-isopropyl-1H-imidazo[4,5-c]pyridin-6-yl)amino)pyrimidin-2-yl)-3-methylpiperidin-4-ol], the Ki is 68.7 nM. Under `Cc1nc2cnc(Nc3ccnc(OCC(C)(C)S(C)(=O)=O)n3)cc2n1C(C)C` [Example 656] stands 214 nM; under `COC1(CO)CCN(c2nccc(Nc3cc4c(cn3)nc([C@@H](C)O)n4[C@@H](C)C(F)(F)F)n2)CC1` [Example 665], 11.5 nM; under `CCNc1nc2cnc(Nc3ccnc(-c4cnn(S(=O)(=O)C5CC5)c4)n3)cc2n1C(C)C` [Example 556], 3.85 nM. As to `Cc1nc2cnc(Nc3ccnc(N4Cc5cn[nH]c5C(C)(C)C4)n3)cc2n1C(C)C` [Example 111, N-(2-(7,7-dimethyl-6,7-dihydro-1H-pyrazolo[4,3-c]pyridin-5(4H)-yl)pyrimidin-4-yl)-1-isopropyl-2-methyl-1H-imidazo[4,5-c]pyridin-6-amine], the Ki turned out to be 18.9 nM.

As for `CO[C@@H]1CCN(c2nccc(Nc3cc4c(cn3)nc(CO)n4[C@@H](C)C(F)(F)F)n2)C[C@@H]1F` [Example 657], the Ki was determined as 17.4 nM. Under `Cc1nc2cnc(Nc3ccnc(N4CCc5[nH]ncc5C4)n3)cc2n1C(C)C` [Example 46, N-(2-(6,7-Dihydro-1H-pyrazolo[4,3-c]pyridin-5(4H)-yl)pyrimidin-4-yl)-1-isopropyl-2-methyl-1H-imidazo[4,5-c]pyridin-6-amine] stands 8.2 nM.

Regarding `CC(C)n1c(CO)nc2cnc(Nc3ccnc(N4CC[C@H](O)[C@H](C)C4)n3)cc21` (racemic) [Example 631, (±)-(cis)-1-(4-(2-(Hydroxymethyl)-1-isopropyl-1H-imidazo[4,5-c]pyridin-6-ylamino)pyrimidin-2-yl)-3-methylpiperidin-4-ol], the Ki is 351 nM. Under `COC1CCN(c2nccc(Nc3cc4c(cn3)c(C(=O)NC3CCN(C)CC3)cn4C(C)C)n2)CC1` [Example 114, 1-isopropyl-6-((2-(4-methoxypiperidin-1-yl)pyrimidin-4-yl)amino)-N-(1-methylpiperidin-4-yl)-1H-pyrrolo[3,2-c]pyridine-3-carboxamide] stands 2.1 nM; under `CCC(C)n1cc(C(=O)NC2CCN(C3COC3)CC2)c2cnc(Nc3ccnc(N4CC[C@@H](OC)[C@@H](F)C4)n3)cc21` (single isomer, unassigned) [Example 325], 3.35 nM. As for `CC(C)n1c([C@H](C)O)nc2cnc(Nc3ccnc(-c4cnn(S(=O)(=O)C5CC5)c4)n3)cc21` [Example 562, (S)-1-{6-[2-(1-Cyclopropanesulfonyl-1H-pyrazol-4-yl)pyrimidin-4-ylamino]-1-isopropyl-1H-imidazo[4,5-c]pyridin-2-yl}ethanol], the Ki worked out at 14 nM.

As to `Cc1nc2cnc(Nc3ccnc(N4CC[C@@H](O)C4)n3)cc2n1C(C)C` [Example 680], the Ki turned out to be 395 nM.

Regarding `CCC(C)n1cc(C(=O)NC2CCOCC2)c2cnc(Nc3ccnc(N4CCC(O)C(C)(C)C4)n3)cc21` (mixture of isomers) [Example 384, 1-(sec-butyl)-6-((2-(4-hydroxy-3,3-dimethylpiperidin-1-yl)pyrimidin-4-yl)amino)-N-(tetrahydro-2H-pyran-4-yl)-1H-pyrrolo[3,2-c]pyridine-3-carboxamide], the Ki worked out at 5.39 nM. With `Cc1cc(-c2cn(C(C)C)c3cc(Nc4ccnc(-c5cnn(S(=O)(=O)C6CC6)c5)n4)ncc23)nn1CCO` [Example 435, 2-(3-(6-(2-(1-(cyclopropylsulfonyl)-1H-pyrazol-4-yl)pyrimidin-4-ylamino)-1-isopropyl-1H-pyrrolo[3,2-c]pyridin-3-yl)-5-methyl-1H-pyrazol-1-yl)ethanol], the Ki came out at 2.36 nM. Turning to `Cc1nc2cnc(Nc3ccnc(N4CCC5(CC4)OCCCO5)n3)cc2n1C(C)C` [Example 648], the Ki came to 219 nM.

As for `CCC(C)n1cc(N2CCCC2=O)c2cnc(Nc3ccnc(N4CC[C@@H](O)[C@@H](F)C4)n3)cc21` (mixture of isomers) [Example 641, 1-(1-(sec-butyl)-6-((2-((3S,4R)-3-fluoro-4-hydroxypiperidin-1-yl)pyrimidin-4-yl)amino)-1H-pyrrolo[3,2-c]pyridin-3-yl)pyrrolidin-2-one], the Ki was 4.02 nM. Turning to `CCC(C)n1cc(C(=O)NC2CCOCC2)c2cnc(Nc3ccnc(N4CC[C@@H](OC)[C@@H](F)C4)n3)cc21` (single isomer, unassigned) [Example 375], the Ki is 3.41 nM. Take `Cc1nc2cnc(Nc3ccnc(-c4cn(C)nc4N)n3)cc2n1C(C)C` [Example 363, N-(2-(3-Amino-1-methyl-1H-pyrazol-4-yl)pyrimidin-4-yl)-1-isopropyl-2-methyl-1H-imidazo[4,5-c]pyridin-6-amine]: the Ki was 31 nM. For the compound `COC1CCN(c2nccc(Nc3cc4c(cn3)c(-c3ccn(CC(N)=O)n3)cn4C(C)C)n2)CC1` [Example 411, 2-(3-(1-isopropyl-6-((2-(4-methoxypiperidin-1-yl)pyrimidin-4-yl)amino)-1H-pyrrolo[3,2-c]pyridin-3-yl)-1H-pyrazol-1-yl) acetamide], the Ki worked out at 3.13 nM. Under `CO[C@H]1CCN(c2nccc(Nc3cc4c(cn3)nc(CO)n4C(C)C)n2)C[C@@H]1F` (racemic) [Example 527, (±)-{6-[2-((trans)-3-Fluoro-4-methoxypiperidin-1-yl)pyrimidin-4-ylamino]-1-isopropyl-1H-imidazo[4,5-c]pyridin-2-yl}methanol] stands 239 nM. Regarding `COC1CCN(c2nccc(Nc3cc4c(cn3)nc(CO)n4C(C)C)n2)CC1` [Example 10, {1-Isopropyl-6-[2-(4-methoxypiperidin-1-yl)pyrimidin-4-ylamino]-1H-imidazo[4,5-c]pyridin-2-yl}methanol], the Ki was determined as 63.2 nM.

Regarding `Cc1nc2cnc(Nc3ccnc(N4CCCC(F)C4)n3)cc2n1C(C)C` (centres unmarked) [Example 590, [2-(3-Fluoropiperidin-1-yl)pyrimidin-4-yl]-(1-isopropyl-2-methyl-1H-imidazo[4,5-c]pyridin-6-yl)amine], the Ki was 93.5 nM.

Turning to `CC(C)n1cc(C(=O)NC2CCOCC2)c2cnc(Nc3ccnc(N4CCC(O)C(C)(C)C4)n3)cc21` (racemic) [Example 385, (±)-6-((2-(4-hydroxy-3,3-dimethylpiperidin-1-yl)pyrimidin-4-yl)amino)-l-isopropyl-N-(tetrahydro-2H-pyran-4-yl)-1H-pyrrolo[3,2-c] pyridine-3-carboxamide], the Ki amounted to 6.47 nM. Under `COC1CCN(c2nccc(Nc3cc4c(cn3)nc(C)n4C(C)C3CC3)n2)CC1` (centres unmarked) [Example 268, [1-(1-Cyclopropylethyl)-2-methyl-1H-imidazo[4,5-c]pyridin-6-yl]-[2-(4-methoxypiperidin-1-yl)pyrimidin-4-yl]amine] stands 6.88 nM.

`CC(C)n1cnc2cnc(Nc3ccnc(NCC(C)(C)C(N)=O)n3)cc21` [Example 85, 3-(4-(1-isopropyl-1H-imidazo[4,5-c]pyridin-6-ylamino)pyrimidin-2-ylamino)-2,2-dimethylpropanamide]: the Ki was 20.8 nM.

Take `CC(C)n1c([C@@H](C)O)nc2cnc(Nc3ccnc(-c4cnn(S(=O)(=O)C5CC5)c4)n3)cc21` [Example 561, (R)-1-{6-[2-(1-Cyclopropanesulfonyl-1H-pyrazol-4-yl)pyrimidin-4-ylamino]-1-isopropyl-1H-imidazo[4,5-c]pyridin-2-yl}ethanol]: the Ki is 1.73 nM. Consider `Cc1nn(CCO)cc1-c1cn(C(C)C)c2cc(Nc3ccnc(-c4cnn(S(=O)(=O)C5CC5)c4)n3)ncc12` [Example 437, 2-(4-(6-(2-(1-(cyclopropylsulfonyl)-1H-pyrazol-4-yl)pyrimidin-4-ylamino)-1-isopropyl-1H-pyrrolo[3,2-c]pyridin-3-yl)-3-methyl-1H-pyrazol-1-yl)ethanol], for which the Ki was determined as 1.21 nM. Take `Cc1cn[nH]c1-c1cn(C(C)C)c2cc(Nc3ccnc(-c4cnn(S(=O)(=O)C5CC5)c4)n3)ncc12` [Example 346, N-(2-(1-(cyclopropylsulfonyl)-1H-pyrazol-4-yl)pyrimidin-4-yl)-1-isopropyl-3-(4-methyl-1H-pyrazol-5-yl)-1H-pyrrolo[3,2-c]pyridin-6-amine]: the Ki amounted to 3.07 nM.

For `CC(C)n1c(CO)nc2cnc(Nc3ccnc(N4CC[C@](C)(O)[C@H](F)C4)n3)cc21` (racemic) [Example 619, (3RS,4SR)-3-Fluoro-1-[4-(2-hydroxymethyl-1-isopropyl-1H-imidazo[4,5-c]pyridin-6-ylamino)pyrimidin-2-yl]-4-methylpiperidin-4-ol], the Ki turned out to be 146 nM. Under `Cc1nc2cnc(Nc3ccnc(-c4cnn(S(=O)(=O)N(C)C)c4)n3)cc2n1C(C)C` [Example 397, 4-(4-((1-isopropyl-2-methyl-1H-imidazo[4,5-c]pyridin-6-yl)amino)pyrimidin-2-yl)-N,N-dimethyl-1H-pyrazole-1-sulfonamide] stands 14.5 nM; under `CCN1CCN(C(=O)c2cn(C(C)C)c3cc(Nc4ccnc(N5CCC(OC)CC5)n4)ncc23)CC1` [Example 122, (4-ethylpiperazin-1-yl)(1-isopropyl-6-((2-(4-methoxypiperidin-1-yl)pyrimidin-4-yl)amino)-1H-pyrrolo[3,2-c]pyridin-3-yl)methanone], 100 nM; under `C[C@@H](O)c1nc2cnc(Nc3ccnc(N4CC[C@H](O)[C@H](F)C4)n3)cc2n1[C@H](C)C(F)(F)F` [Example 688], 107 nM. Under `CCC(C)n1cc(C(=O)NC2CCN(C3COC3)CC2)c2cnc(Nc3ccnc(N4CC[C@@H](OC)[C@@H](F)C4)n3)cc21` (single isomer, unassigned) [Example 326] stands 3.83 nM.

Values taken from patent publication US9890152B2 (Genentech, Inc., priority 2012, dated 2018).
